Laboratory results taken from patent publication US7202218B2, “Oligopeptide antagonist of interleukin-6” (National Taiwan University, priority 2005, dated 2007).
Where no end group is shown, it is not given here.

Columns and labels:
[1] = biological target: T1, IL-6Rα in different cell lines (Homo sapiens, UniProt P08887); assay: In vitro competition assay of synthetic peptides on cell lines; assay type: cell-based; conditions: synthetic peptide; FIG. 3
T1 construct: all membrane-type IL-6Rα-expressing cell lines; endogenous in cells
T1 sequence (P08887 20-468): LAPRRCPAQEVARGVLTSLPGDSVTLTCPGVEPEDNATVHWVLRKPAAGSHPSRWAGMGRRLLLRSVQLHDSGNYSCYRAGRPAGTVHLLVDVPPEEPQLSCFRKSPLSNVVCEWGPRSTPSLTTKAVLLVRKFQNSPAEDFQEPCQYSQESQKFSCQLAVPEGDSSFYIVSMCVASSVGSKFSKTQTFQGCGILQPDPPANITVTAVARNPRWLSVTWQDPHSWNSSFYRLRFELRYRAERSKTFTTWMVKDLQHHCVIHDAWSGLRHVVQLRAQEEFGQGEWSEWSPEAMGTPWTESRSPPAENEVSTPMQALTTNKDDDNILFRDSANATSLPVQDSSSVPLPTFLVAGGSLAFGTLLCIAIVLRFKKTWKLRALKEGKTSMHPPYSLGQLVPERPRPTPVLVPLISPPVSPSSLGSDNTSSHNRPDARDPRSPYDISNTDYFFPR
Procedure: The binding affinities to IL-6Rα of the 7 independent peptide sequences of the IR-6Rα-binding clones selected from phage display peptide library (Table 1) were confirmed. The phage clones with the inserted DNA encoding these 7 different peptide sequences (phage S1˜S7) were added into IL-6Rα coated 96-well cell culture plates (10^12 pfu/ml) and incubated with IL-6Rα for 1 hour. IL-6 protein (50 ng/ml, 100 μl) was added to the wells and incubated at room temperature for 2 hours. The plates were thoroughly washed with 0.1% BSA (bovine serum albumin)/PBS (phosphate-buffered saline) buffer (pH 8.5). Finally, biotin-conjugated anti-IL-6 monoclonal antibody, horseradish peroxidase (HRP)-conjugated streptavidin and tetramethyl benzidine (TMB) substrate solution were used to perform the known phage Enzyme-Linked Immunosorbent Assay (ELISA) to determine the L-6 protein bound to the cell plates.
Oligopeptides encoded by the inserted DNA in phages S7 and S1 (labeled as ‘peptide S7’ (SEQ ID NO: 7) or ‘peptide S1’ (SEQ ID NO: 1) hereafter) were produced by the known peptide synthesis method. The binding assay described in Example 1 was carried out, but using peptide S7 or peptide S1 (negative control) instead of phage clones, and using cell lines instead of IL-6Rα to perform competition assay and get the result shown in FIG. 3.

[2] = test system: Ras/MAPK and PI3-K/Akt signaling pathways; assay: Western blot of IL-6-induced Akt and ERK1/2 phosphorylation in C33A cells; assay type: cell-based, human; conditions: IL-6 50 ng/mL, peptide 50 μmol/L, FIG. 4A
Procedure: (§1) 80% confluent C33A cells were starved for 24 hours and then treated with human IL-6 protein (50 ng/mL) in the presence or absence of S1 peptide (50 μmol/L) or S7 peptide (50 μmol/L). Cell lysates were obtained and subjected to SDS-PAGE separation and Western blot analysis using various antibodies for immunoblotting, such as anti-phospho-ERK1/2, anti-phospho-Akt, anti-ERK1/2, and anti-Akt.

Mcl-1 protein = assay: Western blot of IL-6-induced Mcl-1 protein in C33A cells; assay type: cell-based, human; conditions: FIG. 4B
Procedure: as §1
Equal amounts of cell lysates (75 μg) were resolved by SDS-PAGE, transferred to polyvinylidene difluoride membranes, and probed with specific anti-Mcl-1 antibodies as described above. β-actin served as the internal loading control to get the result shown in FIG. 4A.

VEGF-A = VEGF-A secretion, quantitative sandwich ELISA of conditioned medium; assay type: cell-based; conditions: C33A, RPMI 8226 and BCC cells (all three cell lines); 24 hours; FIG. 5
Procedure: (§2) C33A cervical cancer cells, RPMI 8226 multiple myeloma cells and basal cell carcinoma (BCC) cells, vectors (negative control) were cultivated respectively in DMEM containing 10% FBS, penicillin (100 units/ml), and streptomycin (100 μg/mL) as well as IL-6 protein. At 90% confluence, culture medium was replaced with serum-free medium. IL-6 containing C33A cells were incubated with S1 or S7 peptide for another 24 hours. Conditioned medium (CM) was collected after centrifugation of cellular debris.
The conditioned medium (CM) was concentrated using an Amicon ultracentrifugation device (Millipore). The concentrations of VEGF-A in culture supernatants were determined with quantitative sandwich ELISA assay according to the manufacturer's instruction. Briefly, cell supernatant (50 μl) was incubated with 50 μl of assay diluents for 2 hours at room temperature in a 96-well tissue culture plate coated with monoclonal antibodies against VEGF-A. After five consecutive washes, a conjugate consisting of polyclonal VEGF-A antibodies and HRP was added. The mixture was incubated for 2 hours at room temperature. Following the subsequent addition of a color reagent, absorbance was read at 450 nm using a Thermo-Max microplate reader (Molecular Devices Co., Menlo Park, Calif.).

HUVECs [3] = assay: HUVEC proliferation induced by IL-6-CM, trypan blue exclusion; assay type: cell-based, human; conditions: CM from IL-6-overexpressed cells; 24 hours; FIG. 6
Procedure: as §2
HUVECs were plated onto six-well dishes (Falcon, Becton Dickinson) at a concentration of 2.5×10^5 cells per well in M199 medium supplemented with 10% FBS. One day after seeding, HUVECs were stimulated with CM from cells treated in various ways respectively, where the CM was mixed with M199 medium. Twenty-four hours later, the viable cells were counted using a trypan blue exclusion method.
For the trypan blue exclusion assay, cells were washed with PBS, trypsinized, and then resuspended in 1 ml PBS. Trypan blue-stained cells were then counted using a modified Neubauer hemocytometer under a phase-contrast light microscope.

HUVECs [4] = assay: Capillary tube-like formation by HUVECs on Matrigel; assay type: cell-based, human; conditions: 6 hours, FIG. 7
Procedure: In vitro Assessment using a growth factor-reduced basement membrane Matrigel matrix was carried out to evaluate capillary tube-like formation. The Matrigel was thawed at 4° C. and mixed to homogeneity. The bottom of 96-well cell culture plates were coated with a thin layer of Matrigel (40 μl) and allow the Matrigel to polymerize at 37° C. for 30 minutes. HUVECs were resuspended in M199 medium containing 1% serum to a density of 2.5×10^4 cells/100 μl, mixed with 100 μl of M199 medium containing 1% serum and 100 μl CM from either C33A/neo or C33A/IL-6 cells treated in various ways, and finally plated onto the Matrigel-coated surface. Six hours later, cells were fixed in 4% paraformaldehyde and stained with 0.1% crystal violet. Three microscopic fields were selected at random and photographed, and the number of tube-like structures per field was determined to get the result shown in FIG. 7.

[5] = test system: IL-6-induced angiogenesis; assay: Matrigel plug assay, hemoglobin level; assay type: in vivo; conditions: BALB/c nude mice; plugs recovered after 7 days; FIG. 8
Procedure: On the other hand, Matrigel plug assay was performed to analyze the inhibiting effect on IL-6-induced angiogenesis of peptide S7. Matrigel (500 μl) containing CM from cells treated in various ways was […] into 4- to 8-week-old female BALB/c nude mice at sites lateral to the abdominal midline. Aforementioned CM was obtained either from vector control cells or from IL-6 overexpressed C33A cells in the presence or absence of peptide S7. The Matrigel plugs were recovered after 7 days of implementation, dissolved in PBS, and incubated at 4° C. overnight. Hemoglobin levels were determined using Drabkin's solution (Sigma Chemical) according to the manufacturer's instructions to get the result shown in FIG. 8.

C33A/IL-6 cells = assay: Tumor growth inhibition in SCID mice injected with C33A/IL-6 cells; assay type: in vivo; conditions: 50 mg/kg i.p. every 2 days, FIG. 9
Procedure: Six- to 8-week-old female severe combined immunodeficient (SCID) mice were […] with 1×10^6 C33A/neo or C33A/IL-6 cells. Beginning 3 days later, S1 or S7 peptide (50 mg/kg, dissolved in PBS) was injected i.p. every 2 days. Tumor development was followed in measurements of length (L) and width (W).

Substance	antagonism of the binding of IL-6 to IL-6Rα in different cell lines [1]	inhibition of IL-6-induced phosphorylated Akt level [2]	inhibition of IL-6-induced phosphorylated ERK1/2 MAPK level [2]	IL-6-induced up-regulation of Mcl-1 protein (Mcl-1 protein)	IL-6-mediated VEGF-A secretion (VEGF-A)	IL-6-CM induced HUVECs proliferation (HUVECs [3])	C33A/IL-6-CM induced tube-like cell cord formation (HUVECs [4])	hemoglobin induction in Matrigel plugs containing C33A/IL-6-CM [5]	IL-6-induced tumor growth (C33A/IL-6 cells)	tumor growth inhibition at the end of the experiment (C33A/IL-6 cells; tumor volume) [%]
LSLITRL [peptide S7]	antagonize the binding	significantly inhibited	significantly inhibited	antagonized	significantly decreased	greatly attenuated	almost completely inhibited	almost completely inhibited	significantly reduced	76
LSLMPRL [peptide S1, negative control peptide, reference compound]		not	not			not				
